Like-named read-outs stand apart in the source and are kept apart here.
Key:
[1] = system: A549 cells (homozygous KRAS p.G12S mutation); test: Immunoblot and Raf-RBD pulldown in A549 cells; assay type: cell-based; details: 10 μM, 2 h
Method: Cells were passed for at least two generations after cryorecovery before they were used for assays. All cell lines were tested mycoplasma negative using MycoAlert™ Mycoplasma Detection Kit (Lonza). When indicated, cells were treated with drugs at 40-60% confluency at a final DMSO concentration of 1%. At the end of treatment period, cells were placed on ice. Unless otherwise indicated, adherent cells were washed once with ice-cold PBS (1 mL), scraped with a spatula, and pelleted by centrifugation (500×g, 5 min). Suspension cells were pelleted by centrifugation (500×g, 5 min), washed with 1 mL ice-cold PBS, and pelleted again. Cells were lysed in RIPA buffer supplemented with protease and phosphatase inhibitors (cOmplete and phosSTOP, Roche) on ice for 10 min. For RBD pulldown experiments, cells were lysed in Co-IP Lysis Buffer in lieu of RIPA buffer. Lysates were clarified by high-speed centrifugation (19,000×g, 10 min). Concentrations of lysates were determined with protein BCA assay (Thermo Fisher) and adjusted to 2 mg/mL with additional RIPA buffer (or Co-IP Lysis Buffer). Samples were mixed with 5×SDS Loading Dye and heated at 95° C. for 5 min.
Ras·GTP pulldown was performed with GST-RBD agarose beads (Cytoskeleton, 10 μL, 30 μg loaded GST-RBD). 50 μL lysate (2 mg/mL) was mixed with 10 μL beads, and the suspension was incubated at 4° C. for 1 h with constant end-to-end rotation. The beads were settled by centrifugation (500×g, 5 min) and the supernatant was carefully removed. The beads were washed with 2×500 μL ice-cold Co-IP wash buffer. Bound protein was eluted with 10 μL 2×SDS Loading Buffer.
Membranes were blocked in 5% BSA-TBST for 1 h at 23° C. […] After washing the membrane three times with TBST (5 min each wash), secondary antibodies (goat anti-rabbit IgG-IRDye 800 and goat anti-mouse IgG-IRDye 680, Li-COR) were added as solutions in 5% skim milk-TBST at the dilutions recommended by the manufacturer. Secondary antibody binding was allowed to proceed for 1 h at 23° C. The membrane was washed three times with TBST (5 min each wash) and imaged on a Li-COR Odyssey fluorescence imager.

[2] = molecular target: K-Ras(G12S) (Homo sapiens, UniProt P01116, G12S); test: Covalent modification of recombinant K-Ras(G12S) by whole-protein mass spectrometry; assay type: binding; parameters: human K-Ras (G12S, aa 1-169); 6xHis tag + TEV cleavage site (N, cleaved yes); made in house; host or cells: E. coli BL21(DE3); details: 23° C.; for covalent reaction with K-Ras(G12S)·GDP: 10 μM compound; for % covalent modification of K-Ras G12S: 24-h incubation, 100 μM compound, pH 7.5
Method: (§1) Test compounds were prepared as 100× stock solutions in DMSO. K-Ras proteins were diluted with SEC Buffer (20 mM HEPES 7.5, 150 mM NaCl, 1 mM MgCl2) to 400 nM or 1 μM. In a typical reaction, 0.5 μL 100× compound stock was mixed with 50 μL diluted K-Ras protein, and the resulting mixture was incubated for the desired amount of time. The extent of modification was assessed by electrospray mass spectrometry using a Waters Xevo G2-XS system equipped with an Acquity UPLC BEH C4 1.7 μm column. […] For kinetic measurements, a 2× compound solution was first prepared in SEC Buffer, which was then mixed with 400 nM K-Ras(G12S) protein at 1:1 (v/v) ratio. Injection time stamps were used to calculate elapsed time.
as §1, with “K-Ras(G12D)” for “K-Ras(G12S)”

[3] = molecular target: T1, K-Ras G12D (Homo sapiens, UniProt P01116, G12D); test: Covalent modification of test protein after incubation with compound; assay type: binding; details: 24-h incubation with 100 μM compound at 23° C. at pH 7.5
T1 construct: human K-Ras (G12D, aa 1-169); 6xHis tag + TEV cleavage site (N, cleaved yes); made in house; host or cells: E. coli BL21(DE3)

[4] = molecular target: T2, wild type K-Ras (Homo sapiens, UniProt P01116); test: as above; assay type: binding; details: 24-h incubation with 100 μM compound at 23° C. at pH 7.5
T2 construct: human K-Ras (wildtype, aa 1-169); 6xHis tag + TEV cleavage site (N, cleaved yes); made in house; host or cells: E. coli BL21(DE3)

[5] = molecular target: T3, K-Ras G12E (Homo sapiens, UniProt P01116, G12E); test: as above; assay type: binding; details: 24-h incubation with 100 μM compound at 23° C. at pH 7.5
T3 construct: human K-Ras (G12E, aa 1-169); 6xHis tag + TEV cleavage site (N, cleaved yes); made in house; host or cells: E. coli BL21(DE3)

[6] = molecular target: T2, wild type K-Ras; test: Covalent modification of recombinant wild-type K-Ras by whole-protein mass spectrometry; assay type: binding; details: 24-h incubation, 100 μM compound, 23° C., pH 7.5
Method: (§2) Test compounds were prepared as 100× stock solutions in DMSO. K-Ras proteins were diluted with SEC Buffer (20 mM HEPES 7.5, 150 mM NaCl, 1 mM MgCl2) to 400 nM or 1 μM. In a typical reaction, 0.5 μL 100× compound stock was mixed with 50 μL diluted K-Ras protein, and the resulting mixture was incubated for the desired amount of time. The extent of modification was assessed by electrospray mass spectrometry using a Waters Xevo G2-XS system equipped with an Acquity UPLC BEH C4 1.7 μm column. The mobile phase was a linear gradient of 5-95% acetonitrile/water+0.05% formic acid. For kinetic measurements, a 2× compound solution was first prepared in SEC Buffer, which was then mixed with 400 nM K-Ras(G12S) protein at 1:1 (v/v) ratio. Injection time stamps were used to calculate elapsed time.
as §2, with “K-Ras(G12D)” for “K-Ras(G12S)”

[7] = molecular target: T1, K-Ras G12D; test: Covalent modification of recombinant K-Ras(G12D) by whole-protein mass spectrometry; assay type: binding
Method: as §2, with “K-Ras(G12D)” for “K-Ras(G12S)”

[8] = system: BaF3/K-Ras(G12D) cells; test: Growth inhibition of BaF3/K-Ras(G12D) cells; assay type: cell-based, murine; details: Mus musculus
Method: Cells were seeded into 96-well white flat bottom plates (1,000 cells/well) (Corning) and incubated overnight. Cells were treated with the indicated compounds in a nine-point threefold dilution series (100 μL final volume) and incubated for 72 h. Cell viability was assessed using a commercial CellTiter-Glo (CTG) luminescence-based assay (Promega). Briefly, the 96-well plates were equilibrated to room temperature before the addition of diluted CTG reagent […] (1:4 CTG reagent:PBS). Plates were placed on an orbital shaker for 30 min before recording luminescence using a Spark 20M (Tecan) plate reader.

[9] = Stability of substituted β-lactones in PBS 7.4 at 23° C.; assay type: physicochemical; details: for half-life: PBS, pH 7.4, read-out: half-life (hydrolysis) (converted)
[10] = molecular target: T1, K-Ras G12D; test: Differential scanning fluorimetry of K-Ras(G12D) and its covalent adducts; assay type: binding
Method: The protein of interest was diluted with SEC Buffer [20 mM HEPES 7.5, 150 mM NaCl, 1 mM MgCl2] to 8 μM. This solution was dispensed into wells of a white 96-well PCR plate in triplicate (25 μL/well). Fluorescence was measured at 0.5-° C. temperature intervals every 30 s from 25° C. to 95° C. on a Bio-Rad CFX96 qPCR system using the FRET setting. Each data set was normalized to the highest fluorescence and the normalized fluorescence reading was plotted against temperature in GraphPad Prism 8.0. Tm values were determined as the temperature(s) corresponding to the maximum(ma) of the first derivative of the curve.

| SMILES | % covalent modification of K-Ras G12D [3] | % covalent modification of wild type K-Ras [4] | % covalent modification of K-Ras G12S [2] | % covalent modification of K-Ras G12E [5] | % covalent modification of wild type K-Ras [6] | further results |
| --- | --- | --- | --- | --- | --- | --- |
| CN1CCC[C@H]1COc1nc2c(c(N3CC[C@H]4C(=O)O[C@H]4C3)n1)CCN(c1cccc3cccc(Cl)c13)C2 [3′] | – | – | – | – | – | effects on phospho-Akt, phospho-Erk and Ras·GTP levels [1]: neither adagrasib nor 3′ had any observable effects on these markers; covalent reaction with K-Ras(G12S)·GDP [2]: enhanced reaction |
| O=C1O[C@H]2CN(c3nc(OCC45CCCN4CCC5)nc4c3CCN(c3cccc5cccc(Cl)c35)C4)CC[C@@H]12 [4′] | 0% | 0% | 100% | 0% | 0% | effects on phospho-Akt, phospho-Erk and Ras·GTP levels [1]: decreased the level of Ras·GTP; covalent reaction with K-Ras(G12S)·GDP [2]: enhanced reaction |
| CC(C)[C@H]1C(=O)O[C@@H]1C(=O)N1[C@@H]2CC[C@H]1CN(c1nc(OCC34CCCN3CCC4)nc3c(F)c(-c4cccc5cccc(Cl)c45)ncc13)C2 [(2S, 3R)-4] | – | – | – | – | – | reactivity with K-Ras(G12D)·GDP [7]: did not show any detectable reactivity; IC50 ([8]; 95% CI: 3.1-6.3 μM, read-out: IC50, BaF3/K-Ras(G12D) proliferation): 4.4 µM |
| O=C1C[C@H](C(=O)N2[C@@H]3CC[C@H]2CN(c2nc(OCC45CCCN4CCC5)nc4c(F)c(-c5cccc6cccc(Cl)c56)ncc24)C3)O1 [Compound 2] | – | – | – | – | – | half-life [9]: 1.7 h; reactivity with K-Ras(G12D)·GDP [7]: the R enantiomer was more reactive toward K-Ras(G12D)·GDP |
| C[C@@H]1C(=O)O[C@H]1C(=O)N1[C@@H]2CC[C@H]1CN(c1nc(OCC34CCCN3CCC4)nc3c(F)c(-c4cccc5cccc(Cl)c45)ncc13)C2 [Compound 3] | – | – | – | – | – | half-life [9]: 2.5 h |
| CC(C)[C@@H]1C(=O)O[C@H]1C(=O)N1[C@@H]2CC[C@H]1CN(c1nc(OCC34CCCN3CCC4)nc3c(F)c(-c4cccc5cccc(Cl)c45)ncc13)C2 [Compound 4] | – | – | – | – | – | material remaining intact (hydrolysis) ([9]; after 24 h, pH 7.4): > 90%; IC50 ([8]; read-out: IC50, growth of BaF3/K-Ras(G12D) cells): 0.071 µM |
| O=C1OCC12CCN(c1nc(OCC34CCCN3CCC4)nc3c(F)c(-c4cccc5cccc(Cl)c45)ncc13)CC2 [Compound 13-037] | 0% | 0% | 42.5% | 0% | 0% | – |
| N#CC[C@H]1CN(c2nc(OCC34CCCN3CCC4)nc3c(F)c(-c4cccc5cccc(Cl)c45)ncc23)CCN1C(=O)C1CC(=O)O1 (stereo partly drawn) [Compound 14-005] | 100% | 0% | 100% | 38.0% | 0% | thermal stabilization of K-Ras(G12D)·GDP ([10]; GDP state): stabilized K-Ras(G12D)·GDP; thermal stabilization of K-Ras(G12D)·GppNHp ([10]; GppNHp state): stabilized K-Ras(G12D)·GppNHp |
| O=C1CC(C(=O)N2[C@@H]3CC[C@H]2CN(c2nc(OCC45CCCN4CCC5)nc4c(F)c(-c5cccc6cccc(Cl)c56)ncc24)C3)O1 (stereo partly drawn) [Compound 14-036] | 100% | 22.0% | 42.0% | 42.0% | 22.0% | – |
